Read-outs that look alike come from different tables or passages of the source.
Assays:
[1] = tested on: human primary macrophages
Description: (§1) Total protein lysates were isolated from either mouse ImKCs with or without DPI treatment for 6 and 12 hrs or human primary macrophages with or without DPI treatment for 12 hrs at the indicated concentrations. Equal amounts of total proteins from whole-cell lysates were subjected to Western blotting analysis. β-actin was used as a loading control. Shown are representative data of two independent experiments. […] P values were calculated by student t-test. * P<0.05, ** P<0.01. n.s. not significant.
(§2) Proteins were extracted from cells with RIPA buffer. Protein concentration was quantified by BCA Protein Assay Kit (Pierce Biotechnology). Samples containing 20 μg total protein were resolved on a 10% SDS-PAGE gel and electro-transferred onto a PVDF membrane (Millipore Corporation). The membrane was blocked in 5% (w/v) fat-free milk in PBST (PBS containing 0.1% Tween-20). […] The blot was washed twice in PBST and then incubated with anti-Rabbit HRP-conjugated secondary antibody (Cell Signaling Technology, 1:2000) in 5% fat-free milk. The membrane was washed twice in PBST and subjected to protein detection by ECL Plus Western Blotting Detection System (GE Healthcare) before being exposed to a Kodak BioMax XAR film.

ImKCs = conditions: dose- and time-dependent
Description: as §1, §2

[2] = tested on: BMDMs (wild-type and Pkm−/−); conditions: dose-dependent
Description: WT and Pkm^−/− BMDMs were not treated or treated with DPI (50 and 500 nM) for 24 hrs. The transcript levels of Pkm, Ldha, Hk2 and c-Myc were measured by real-time qPCR. Data were collected from two independent experiments with 3 biological replicates per group. Transcriptional level was normalized to β-actin first and then to DMSO control. Data are presented as the mean±sd. […] Transfected cells were not treated or treated with DPI (50 and 500 nM) for 6 hrs and luciferase activities were measured. Data are presented as the mean±sd (n=5). P values were calculated by student t-test. * P<0.05, ** P<0.01, *** P<0.001, **** P<0.0001.
To test this mechanism, we first determined if PKM2 is required for DPI-induced transcription of glycolytic genes. BMDMs were prepared from wild-type and Pkm^−/− mice, incubated with or without 50 and 500 nM DPI for 24 hours, and the transcript levels of key glycolytic genes were quantified by RT-PCR.
We also determined if c-Myc is induced by DPI in a PKM2-dependent manner. […] To determine whether DPI activates c-Myc transcriptional activity, we performed c-Myc luciferase reporter assays in the parental ImKCs and Pkm^−/− ImKCs.

[3] = KC-specific Pkm−/− mice
Description: FIGS. 24G-24H show DPI's effect on KC-specific Pkm^−/− mice fed with HFD. Male KC-specific Pkm^−/− mice at the age of 5 weeks were fed with HFD for a total of 8 weeks. Three weeks after HFD, half of the mice were given DPI in vehicle (2 mg/kg) and the other half were given vehicle every 5 days for a total of 6 doses. Body weights were monitored weekly (FIG. 24G). Data are presented as the mean±sd from two independent experiments with 6 mice per group. Comparison of H&E staining of liver sections after 8 weeks on HFD. Shown are representative H&E staining from one mouse per group. Arrows in FIG. 24F and FIG. 24H point to lipid droplets. Scale bar: 100 μm. P values were calculated by student t-test. * P<0.05, ** P<0.01, *** P<0.001, **** P<0.0001.
FIGS. 34A-34C show effect of DPI on Kupffer cell-specific Pkm^−/− mice on HFD. […] KC-specific Pkm^−/− mice were given HFD for a total of 8 weeks. Three weeks after HFD, half of the mice were given DPI in vehicle (2 mg/kg) and the other half were given vehicle every 5 days for a total of 6 doses. At 7 weeks plus 3 days, mice were starved overnight (12˜16 hrs) with only water. Glucose (1 mg/kg) was injected intraperitoneally and blood glucose levels were monitored at the indicated time. […] Sera from mice were collected at the end of HFD feeding and activities of AST and ALT were measured by colorimetric assay kits (Sigma). Shown are representative data from two independent experiments with 5˜6 mice per group. P values were calculated by student t-test. n.s. not significant. * P<0.05.
KC-specific Pkm^−/− mice were fed with HFD for 8 weeks starting at 5 weeks of age. Three weeks after HFD, half of the mice were given vehicle and the other half was given DPI (2 mg/kg) i.p. every 5 days.

[4] = tested on: mouse bone marrow macrophages (BMMs); experiment: Development and function of TAM/M2-like macrophages in vitro (qPCR, flow cytometry); format: cell-based
Description: DEGs were identified by edgeR at P<0.05 with at least 2 fold-change. Data for genes that were not classified as differentially expressed are plotted in black. […] Mouse BMMs were cultured in normal medium with or without 2.5 μM thiostrepton for 24 hrs (group 1), or cultured in B16F10 tumor cell conditioned medium (CM) with or without 2.5 μM thiostrepton for 24 hrs (group 2), or cultured with B16F10 tumor cell CM for 24 hrs first and then treated with 2.5 μM thiostrepton for another 24 hrs (group 3). The transcript levels of the indicated genes were quantified by qPCR. Data were summarized from two independent experiments. […] Mouse BMMs were treated with thiostrepton for 24 hrs. Untreated and treated macrophages were co-cultured with equal number of B16F10 melanoma cells for 12 hrs. The number of tumor cells were quantified by flow cytometry after subtracting macrophages from total number of cells. Data were summarized from three independent experiments. ** P<0.01 by T-test.
Expression of MHCII, CD80, iNOS, Arg1 and CD206 were quantified by flow cytometry. Shown are representative staining profiles of treated (red) and untreated (dark) TAMs from two independent experiments. […] Alternatively, mouse BMMs were polarized with IL-4/IL-13 (group 3) or lactic acid (group 5) for 24 hrs first and then either not treated or treated with […] thiostrepton for another 24 hrs. The transcript levels of the indicated genes were quantified by qPCR. Data are summarized from two independent experiments.
Mouse BMMs were not treated or treated with […] thiostrepton for 24 hours in normal medium (group 1) or in the presence of IL4/IL13 (group 2), or mouse BMMs were polarized with IL4/IL13 for 24 hours and then either not treated or treated with […] thiostrepton for 24 hours (group 3). RNA was isolated and the transcript levels of the indicated genes were quantified by PCR. Data, shown as mean±s.d., were summarized from two independent experiments. * P<0.05 and ** P<0.01 by T-test. […] Data are shown as mean±s.e.m. FIGS. 19C-19D show flow cytometry analysis of TAM (F4/80^+CD11b^+Ly6C^−Ly6G^−), inflammatory monocytes (F4/80′^intCD11b^+Ly6C^+Ly6G^−) and monocytes (F4/80^−CD11b^+Ly6C^+Ly6G^+) in the tumors of mice treated with DMSO, TA99, cucurbitacin I, and cucurbitacin I plus TA99 18 days after tumor engraftment. Shown are representative F4/80 versus CD11b staining profiles gating on CD45+ cells and MHCII histograms gating on macrophages from c.
Mouse bone marrow-derived macrophages (mBMM) were prepared as described previously^54. Briefly, fresh bone marrow cells were isolated from B6 mice. Cells were plated into 6-well plate with 1×10^6/mL in complete RPMI with 2-mercaptoethanol and cultured for 6 days with fresh medium change every 2 days. mBMMs were differentiated to resemble TAMs in the presence of 10 ng/mL mIL-4 and mIL-13 (Peprotech) or 25 mM lactate acid for 24 hrs or tumor conditioned medium (CM). To prepare CM, 70% confluent B16F10 cultured were replaced with fresh medium and the tumor medium was collected and filtered ([…]) 24 hrs later. The mixture of 3 volumes of tumor medium with 1 volume of complete RPMI for mBMM serves as the CM. Expression of Arg, Fizz1 and Vegfa were quantified by qPCR to assess the development of TAMs. Other genes of Tnf, Il1b, Nos2, Cxcl2, Ccl5, Ym1 and Tgfb serve as macrophage activating markers. To assay the tumor growth inhibition, mBMMs (10,000 cells per well in 96 well plate) were treated with thiostrepton for 24 hrs and then cocultured with equal number of B16 melanoma cells in fresh complete RPMI for 12 hrs. The conditioned medium treated or not treated with thiostrepton were collected and filtered. The numbers of B16 melanoma cells were cultured for 12 hrs with conditioned medium or conditioned medium heated at 95° C. for 5 min. Tumor cells were quantified by flow cytometry to determine the macrophage-dependent killing function. […]

[5] = BMMs in B16F10 conditioned medium, 2.5 μM, 24 hrs, qPCR
[6] = BMMs in B16F10 conditioned medium, flow cytometry
[7] = IL-4/IL-13 and lactic acid-polarized BMMs, qPCR

Description for c-Myc: Transfected cells were not treated or treated with DPI (50 and 500 nM) for 6 hrs and luciferase activities were measured. Data are presented as the mean±sd (n=5). P values were calculated by student t-test. * P<0.05, ** P<0.01, *** P<0.001, **** P<0.0001.
The c-Myc activity was assessed using the Myc Reporter kit (BPS Biosciences) and the Dual-Luciferase Reporter System (Promega) according to the manufacturers' instructions. Briefly, 100 μL (1.5×10^5 cells/mL) control and Kupffer cells were seeded into 96-well plates. After overnight incubation, when cells reached ˜50% confluency, 1 μL of Reporter A (60 ng/μL) in the Myc Reporter kit was transfected into cells using Turbofectin 8.0. After 48 hours, cells were lysed in 25 μL Passive Lysis Buffer (provided in the Dual-Luciferase Reporter kit). 20 μL of cell lysate was transferred to 96-well plates and placed in a 96-well microplate luminometer (GloMax-Multi, Promega). 100 μL Luciferase Assay Reagent II and 100 μL Stop & Glo Reagent (both provided in the Dual-Luciferase Reporter kit) were sequentially injected, and firefly and Renilla luciferase activities were automatically measured. c-Myc activities were determined by the ratios of firefly to Renilla luciferase activities.

Row | Compound | transcription of genes in the glycolysis pathway ([1]; 50 nM, 24 hours, RNAseq) | HK, GAPDH, LDHA and enolase at the protein level ([1]; human primary macrophages, dose- and time-dependent) | HK, GAPDH, LDHA and enolase at the protein level (ImKCs) | transcription of c-Myc [2] | c-Myc luciferase activity (c-Myc; Pkm−/− ImKCs) | c-Myc luciferase activity (c-Myc; parental ImKCs, 50 and 500 nM, 6 hrs) | blood glucose (15 and 30 min after glucose injection) | blood glucose (6 hours after DPI 2 mg/kg i.p.) | iWAT [3] | HFD-induced body-weight gain and lipid droplet deposition in the livers ([3]; 2 mg/kg i.p. every 5 days) | glucose tolerance, serum AST and ALT levels ([3]; with or without DPI) | expression of M1-associated genes Tnf, Il1b, Cxcl2 and Nos2 [4, 5] | expression of TAM/M2-associated genes Arg1, Fizz1, Vegfa, Ym1 and Tgfb [4, 5] | ARG1 [4, 6] | MHCII, CD80 and iNOS [4, 6] | expression of Arg1, Fizz1, Ym1 and Tgfb [4, 7] | expression of Tnf, Il1b, Cxcl2 and Ccl5 [4, 7]
1 | c1ccc2c(c1)[I+]c1ccccc1-2 [Diphenyleneiodonium chloride] | stimulates transcription | upregulation | upregulation | stimulated the transcription | not | induced | significantly lower levels | significantly lower level | significantly lower level | did not reduce | similar |  |  |  |  |  | 
2 | C=C(NC(=O)C(=C)NC(=O)c1csc(C2=N[C@@H]3c4csc(n4)[C@H]4NC(=O)c5csc(n5)[C@H]([C@](C)(O)[C@@H](C)O)NC(=O)[C@H]5CSC(=N5)/C(=C/C)NC(=O)[C@H]([C@@H](C)O)NC(=O)c5csc(n5)[C@]3(CC2)NC(=O)[C@H](C)NC(=O)C(=C)NC(=O)[C@H](C)NC(=O)[C@H]([C@@H](C)CC)N[C@@H]2C=Cc3c([C@H](C)O)cc(nc3[C@H]2O)C(=O)O[C@@H]4C)n1)C(N)=O [Thiostrepton] |  |  |  |  |  |  |  |  |  |  |  | up-regulated | inhibited | down-regulation | up-regulation | inhibited | elevated

— patent publication US20250262167A1, “COMPOUNDS, TARGETS AND PATHWAYS FOR MACROPHAGE MODULATION” (Massachusetts Institute of Technology, priority 2020, published 2025)
